{
  "source": "patent US4201771A",
  "about": "(priority 1979, dated 1980)",
  "format_in_all_cases": "in vivo",
  "key": {"[1]": {"system": "Piricularia oryzae", "settings": "for Rice Blast Lesions/5th Leaf Protectant: Table 1, untreated 52; for Rice Blast Lesions per 5th Leaf: Table 2, protectant, untreated control 22"}, "[2]": {"system": "Piricularia oryzae", "settings": "1000 PPM; untreated 69"}, "[3]": {"system": "Puccinia recondita f. sp. tritici", "settings": "untreated 27"}, "[4]": {"system": "Phytophthora infestans", "settings": "untreated 84"}, "[5]": {"system": "Puccinia recondita f. sp. tritici", "settings": "1000 PPM; untreated 42"}, "[6]": {"system": "Rice, variety Calusa No. 2", "test": "Phytotoxicity / injury on rice in greenhouse bioassay", "settings": "Table 2, rice", "procedure": "Host: Rice, variety Calusa No. 2.\nGrowth Conditions: Rice plants grown to 5 leaf stage in greenhouse on Swiss Farm Potting soil in 7 ounce styrafoam pots. Thinned to 3 seedlings per pot. Day temperature 20°-28° C.; night temperature 15°-20° C. Soluble 20--20--20 fertilizer applied weekly.\nTreatment: Test solutions or suspensions of candidate compounds sprayed on both leaf surfaces to run-off with a No. 152 DiVilbiss atomizer at 10 psi. Formulations are prepared by dissolving compounds in methanol-Tween 20 mixture and bringing to volume with deionized water."}},
  "note": "Like-named read-outs stand apart in the source and are kept apart here.",
  "data": [
    {"smiles": "CCOP(=O)(Sc1ccccc1)Sc1ccccc1", "note": "[Hinosan, O-Ethyl 5,5-diphenylphosphorodithioate]", "values": [
      {"measurement": "Rice Blast Lesions/5th Leaf Protectant", "setting": "[1]; 1 PPM", "result": 16},
      {"measurement": "Rice Blast Lesions/5th Leaf Protectant", "setting": "[1]; 10 PPM", "result": 8},
      {"measurement": "Rice Blast Lesions/5th Leaf Protectant", "setting": "[1]; 100 PPM", "result": "< 1"},
      {"measurement": "Rice Blast Lesions/5th Leaf Systemic", "setting": "[2]", "result": 31}
    ]},
    {"smiles": "S=C([S-])NCCNC(=S)[S-].[Mn+2]", "note": "[Maneb, [[1,2-Ethanediylbis[carbamodithioato]]-(2-)]manganese]", "values": [
      {"measurement": "Wheat Leaf Rust Pustules/Leaf Protectant", "setting": "[3]; 1 PPM", "result": 20},
      {"measurement": "Wheat Leaf Rust Pustules/Leaf Protectant", "setting": "[3]; 10 PPM", "result": 12},
      {"measurement": "Wheat Leaf Rust Pustules/Leaf Protectant", "setting": "[3]; 100 PPM", "result": 0},
      {"measurement": "Late Blight (Tomato) Phytophthora % Leaf Necrosis Protectant", "setting": "[4]; 1 PPM", "result": 77, "unit": "%"},
      {"measurement": "Late Blight (Tomato) Phytophthora % Leaf Necrosis Protectant", "setting": "[4]; 10 PPM", "result": 63, "unit": "%"},
      {"measurement": "Late Blight (Tomato) Phytophthora % Leaf Necrosis Protectant", "setting": "[4]; 100 PPM", "result": 11, "unit": "%"}
    ]},
    {"smiles": "CC1=C(C(=O)Nc2ccccc2)SCCO1", "note": "[Carboxin, 5,6Dihydro-2-methyl-N-phenyl-1,4-oxathiin-3-carboxamide]", "values": [
      {"measurement": "Wheat Leaf Rust Pustules/Leaf Systemic", "setting": "[5]", "result": 4}
    ]},
    {"smiles": "CCCCNC(=O)n1c(NC(=O)OC)nc2ccccc21", "note": "[Benomyl, [1-[(Butylamino)carbonyl]-1H-benzimidazol-2-yl]carbamic acid methyl ester]", "values": [
      {"measurement": "Rice Blast Lesions per 5th Leaf", "setting": "[1]; 1 PPM", "result": 4},
      {"measurement": "Rice Blast Lesions per 5th Leaf", "setting": "[1]; 10 PPM", "result": 4},
      {"measurement": "Rice Blast Lesions per 5th Leaf", "setting": "[1]; 100 PPM", "result": 0.1},
      {"measurement": "Remarks (plant injury)", "setting": "[6]; 1 PPM", "result": "no injury"},
      {"measurement": "Remarks (plant injury)", "setting": "[6]; 10 PPM", "result": "no injury"},
      {"measurement": "Remarks (plant injury)", "setting": "[6]; 100 PPM", "result": "no injury"}
    ]}
  ]
}
